In patent US8198450B2, “Quinolinone derivatives and their pharmaceutical compositions” (Novartis AG, priority 2006, dated 2012):

Columns and labels:
[1] = clinic: treatment of asthma and chronic obstructive pulmonary disease; format: in vivo
solubility in ethanol = format: physicochemical
hygroscopicity = format: physicochemical
stability of the salt = format: physicochemical; settings: before and after micronisation, with or without excipients, with and without moisture
[2] = equilibration in solvents, crystalline form; format: physicochemical; settings: 1 day at 25° C. in water, ethanol and isopropanol

SMILES | tested in the clinic for the treatment of asthma and chronic obstructive pulmonary disease ([1]; clinic) | cough exhibited by certain patients on administration ([1]; particularly first administration) | solubility in ethanol (solubility in ethanol) | hygroscopicity (hygroscopicity) | stability (stability of the salt) | change of crystalline form after equilibration [2]
CCc1cc2c(cc1CC)CC(NC[C@H](O)c1ccc(O)c3[nH]c(=O)ccc13)C2.O=C(O)/C=C\C(=O)O [(R)-5-[2-(5,6-diethyl-indan-2-ylamino)-1-hydroxyethyl]-8-hydroxy-1H-quinolin-2-one maleate] | tested favourably | cough |  |  |  | 
CCc1cc2c(cc1CC)CC(NC[C@H](O)c1ccc(O)c3[nH]c(=O)ccc13)C2 [Example 12, (R)-5-[2-(5,6-diethyl-indan-2-ylamino)-1-hydroxyethyl]-8-hydroxy-1H-quinolin-2-one glycolate] |  |  | low | substantially not hydroscopic | especially stable | no change of crystalline form
CC(=O)O.CCc1cc2c(cc1CC)CC(NC[C@H](O)c1ccc(O)c3[nH]c(=O)ccc13)C2 [Example 15, (R)-5-[2-(5,6-diethyl-indan-2-ylamino)-1-hydroxyethyl]-8-hydroxy-1H-quinolin-2-one acetate] |  |  | low | substantially not hydroscopic | especially stable | no change of crystalline form
CCc1cc2c(cc1CC)CC(NC[C@H](O)c1ccc(O)c3[nH]c(=O)ccc13)C2.O=C(O)CC(=O)O [Example 21, (R)-5-[2-(5,6-diethyl-indan-2-ylamino)-1-hydroxyethyl]-8-hydroxy-1H-quinolin-2-one hydrogen malonate] |  |  | low | substantially not hydroscopic | especially stable | no change of crystalline form
